Source: patent US9365584B2, “Thieno [2,3-B] pyridinedione activators of AMPK and therapeutic uses thereof” (Poxel, priority 2009, dated 2016)

tested on: AMPK; assay: AMPK enzyme activity assay (Delfia technology, AMARA peptide substrate); format: biochemical; conditions: compound at 30 μM vs AMP at 200 μM
How it was run: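 Value is the ratio of compound (30 μM) to AMP (200 μM) response, each as % of basal control. Phosphorylation of the AMARA peptide after AMPK addition was read by Delfia with an anti-phosphoserine antibody.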

Activity: Ratio between the % of control (basal activity) of compound of formula (1) at 30 μM and the % of control (basal activity) of AMP (natural substrate) at 200 μM	SMILES
C (C≧75%)	COc1cccc(-c2c(Cl)sc3c2C(=O)C(F)(c2ccccc2)C(=O)N3)c1 (stereo not drawn) [No 94, 2-chloro-5-fluoro-3-(3-methoxyphenyl)-5-phenyl-7H-thieno[2,3-b]pyridine-4,6-dione]
B (50%≦B<75%)	O=C1Nc2sc(Cl)c(-c3ccccc3)c2C(=O)C1(F)c1cccc(C(F)(F)F)c1 (stereo not drawn) [No 95, 2-chloro-5-fluoro-3-phenyl-5-[3-(trifluoro-methyl)phenyl]-7H-thieno[2,3-b]pyridine-4,6-dione]
A (0%<A<50%)	COc1ccc(-c2c(Cl)sc3c2C(=O)C(C)(c2ccc(C)cc2)C(=O)N3)cc1 (stereo not drawn) [No 96, 2-chloro-3-(4-methoxyphenyl)-5-methyl-5-(p-tolyl)-7H-thieno[2,3-b]pyridine-4,6-dione]
C (C≧75%)	CS(=O)(=O)c1ccc(C2(F)C(=O)Nc3sc(Cl)c(-c4ccccc4)c3C2=O)cc1 (stereo not drawn) [No 97, 2-chloro-5-fluoro-5-(4-methylsulfonylphenyl)-3-phenyl-7H-thieno[2,3-b]pyridine-4,6-dione]
A (0%<A<50%)	COc1ccccc1-c1c(Cl)sc2c1C(=O)C(F)(c1ccccc1)C(=O)N2 (stereo not drawn) [No 98, 2-chloro-5-fluoro-3-(2-methoxyphenyl)-5-phenyl-7H-thieno[2,3-b]pyridine-4,6-dione]
C (C≧75%)	COc1ccccc1C1(F)C(=O)Nc2sc(Cl)c(-c3ccc(F)cc3O)c2C1=O (stereo not drawn) [No 99, 2-chloro-5-fluoro-3-(4-fluoro-2-hydroxy-phenyl)-5-(2-methoxyphenyl)-7H-thieno[2,3-b]pyridine-4,6-dione]
B (50%≦B<75%)	O=C1Nc2scc(-c3ccccc3)c2C(=O)C1(F)c1ccccc1 (stereo not drawn) [No 100, 5-fluoro-3,5-diphenyl-7H-thieno[2,3-b]pyridine-4,6-dione]
B (50%≦B<75%)	O=C1Nc2sc(Cl)c(-c3ccccc3Cl)c2C(=O)C1(F)c1ccccc1 (stereo not drawn) [No 101, 2-chloro-3-(2-chlorophenyl)-5-fluoro-5-phenyl-7H-thieno[2,3-b]pyridine-4,6-dione]
C (C≧75%)	Cc1c(F)ccc(-c2csc3c2C(=O)C(F)(c2ccccc2)C(=O)N3)c1O (stereo not drawn) [No 102, 5-fluoro-3-(4-fluoro-2-hydroxy-3-methyl-phenyl)-5-phenyl-7H-thieno[2,3-b]pyridine-4,6-dione]
A (0%<A<50%)	CC1(c2cccc(F)c2)C(=O)Nc2sc(Cl)c(-c3cccc(F)c3)c2C1=O (stereo not drawn) [No 103, 2-chloro-3,5-bis(3-fluorophenyl)-5-methyl-7H-thieno[2,3-b]pyridine-4,6-dione]
B (50%≦B<75%)	CC1(c2ccccc2F)C(=O)Nc2sc(Cl)c(-c3cccc(F)c3)c2C1=O (stereo not drawn) [No 104, 2-chloro-5-(2-fluorophenyl)-3-(3-fluorophenyl)-5-methyl-7H-thieno[2,3-b]pyridine-4,6-dione]
A (0%<A<50%)	COc1cccc(C2(C)C(=O)Nc3sc(Cl)c(-c4cccc(F)c4)c3C2=O)c1 (stereo not drawn) [No 105, 2-chloro-3-(3-fluorophenyl)-5-(3-methoxyphenyl)-5-methyl-7H-thieno[2,3-b]pyridine-4,6-dione]
A (0%<A<50%)	Cc1cccc(C2(C)C(=O)Nc3sc(Cl)c(-c4cccc(F)c4)c3C2=O)c1 (stereo not drawn) [No 106, 2-chloro-3-(3-fluorophenyl)-5-methyl-5-(m-tolyl)-7H-thieno[2,3-b]pyridine-4,6-dione]
A (0%<A<50%)	COc1ccccc1-c1c(Cl)sc2c1C(=O)C(C)(c1ccccc1)C(=O)N2 (stereo not drawn) [No 107, 2-chloro-3-(2-methoxyphenyl)-5-methyl-5-phenyl-7H-thieno[2,3-b]pyridine-4,6-dione]
C (C≧75%)	Cc1c(F)ccc(-c2csc3c2C(=O)C(F)(c2ccc(F)cc2)C(=O)N3)c1O (stereo not drawn) [No 108, 5-fluoro-3-(4-fluoro-2-hydroxy-3-methyl-phenyl)-5-(4-fluorophenyl)-7H-thieno[2,3-b]pyridine-4,6-dione]
C (C≧75%)	Cc1ccc(C2(F)C(=O)Nc3scc(-c4ccc(F)cc4O)c3C2=O)cc1 (stereo not drawn) [No 109, 5-fluoro-3-(4-fluoro-2-hydroxy-phenyl)-5-(p-tolyl)-7H-thieno[2,3-b]pyridine-4,6-dione]
C (C≧75%)	COc1cc(C)ccc1-c1csc2c1C(=O)C(F)(c1cccc(C#N)c1)C(=O)N2 (stereo not drawn) [No 110, 3-[5-fluoro-3-(2-methoxy-4-methyl-phenyl)-4,6-dioxo-7H-thieno[2,3-b]pyridin-5-yl]benzonitrile]
C (C≧75%)	COc1cc(C)ccc1-c1c(F)sc2c1C(=O)C(F)(c1cccc(C#N)c1)C(=O)N2 (stereo not drawn) [No 111, 3-[2,5-difluoro-3-(2-methoxy-4-methyl-phenyl)-4,6-dioxo-7H-thieno[2,3-b]pyridin-5-yl]benzonitrile]
A (0%<A<50%)	COc1cccc(O)c1-c1csc2c1C(=O)C(F)(c1ccccc1)C(=O)N2 (stereo not drawn) [No 112, 5-fluoro-3-(2-hydroxy-6-methoxy-phenyl)-5-phenyl-7H-thieno[2,3-b]pyridine-4,6-dione]
B (50%≦B<75%)	COc1cc(-c2csc3c2C(=O)C(F)(c2ccccc2)C(=O)N3)ccc1C (stereo not drawn) [No 113, 5-fluoro-3-(3-methoxy-4-methyl-phenyl)-5-phenyl-7H-thieno[2,3-b]pyridine-4,6-dione]
B (50%≦B<75%)	COc1cc(-c2c(F)sc3c2C(=O)C(F)(c2ccccc2)C(=O)N3)ccc1C (stereo not drawn) [No 114, 2,5-difluoro-3-(3-methoxy-4-methyl-phenyl)-5-phenyl-7H-thieno[2,3-b]pyridine-4,6-dione]
C (C≧75%)	Cc1ccc(-c2csc3c2C(=O)C(F)(c2ccccc2)C(=O)N3)cc1O (stereo not drawn) [No 115, 5-fluoro-3-(3-hydroxy-4-methyl-phenyl)-5-phenyl-7H-thieno[2,3-b]pyridine-4,6-dione]

same assay, conditions: compound at 30 μM vs AMP at 200 μM; listed as 4

Activity: Ratio between the % of control (basal activity) of compound of formula (1) at 30 μM and the % of control (basal activity) of AMP (natural substrate) at 200 μM	SMILES
A (0%<A<50%)	COc1cc(C)ccc1-c1csc2c1C(=O)C(F)(c1cccc(C#N)c1)C(=O)N2 (stereo not drawn) [No 110, 3-[5-fluoro-3-(2-methoxy-4-methyl-phenyl)-4,6-dioxo-7H-thieno[2,3-b]pyridin-5-yl]benzonitrile]

same assay, conditions: compound at 30 μM vs AMP at 200 μM; listed as 5

Activity: Ratio between the % of control (basal activity) of compound of formula (1) at 30 μM and the % of control (basal activity) of AMP (natural substrate) at 200 μM	SMILES
A (0%<A<50%)	COc1cc(C)ccc1-c1c(F)sc2c1C(=O)C(F)(c1cccc(C#N)c1)C(=O)N2 (stereo not drawn) [No 111, 3-[2,5-difluoro-3-(2-methoxy-4-methyl-phenyl)-4,6-dioxo-7H-thieno[2,3-b]pyridin-5-yl]benzonitrile]
